Experimental data published in patent US5272164A, “Carboximidamide derivatives” (Kirin Beer Kabushiki Kaisha, priority 1988, dated 1993).

What was measured:
potassium channel [1] = assay: Potassium channel activating effect (86Rb efflux from rat thoracic aortae); format: cell-based, male Wistar rats; details: 10^-4 M, 8 minutes, percent of efflux before application
Method: Male Wistar rats (weighing 250-350 g) were dehematized to death, and thoracic aortae were rapidly isolated. The aorta was opened along the longitudinal axis to prepare a flat sheet. The preparation was loaded with ^86 Rb in the Krebs-Ringer solution which contained ^86 Rb in the concentration of 10 μCi/ml and was gassed with 95% 02 5% CO2 at 37° C. for 2 hours. The preparation was then transferred to a Krebs-Ringer solution not containing ^86 Rb, and washed to remove excess radioactivity for 18 minutes by refreshing the solution every 2 minutes. Finally the preparation was placed into a Krebs-Ringer solution containing each compound (10^-4 M) for 8 minutes.
The amount of ^86 Rb efflux from the preparation in each period was determined with a γ-counter.
The increment in efflux rate during the application of the compound was expressed as percent of the efflux before the application of the compound.

isolated rat heart = assay: Effect on isolated rat heart (Langendorff's method); set-up: species or system male rats; details: 1 × 10^-8 mol/min, n=3, mean ± S.D.; for Coronary Perfusate Flow: ** p < 0.01 as compared with nicorandil
Method: The effect of the compound of the present invention on heart of rats was examined by using the Langendorff's method [test compound: N-cyano-N'-(2-nitroxyethyl)-3-pyridinecarboximidamide (compound (13))]. Hearts were excised from male rats (weighing 250-350 g) and perfused at 80 cmH2 O in a Langendorff fashion. Krebs-Hensaleit bicarbonate solution (pH 7.4, 37° C.) containing an 11 mM glucose which was oxygenated with 95% O2 -5% CO2 gas mixture was used as a perfusate. The left ventricular pressure was recorded by inserting a latex balloon into the left ventricle, and heart rate was determined from the pulse of it. Coronary perfusate flow as also measured with an electromagnetic flowmeter. The experiments were carried out by perfusing a perfusate containing the compound (13) for 10 minutes after an initial equilibration period for 30 minutes. As the control compound, nicorandil which has an effect opening potassium channel and is similar to the test compound in structure was used. The changes in the coronary perfusate flow and the cardiac function (heart rate×left ventricular pressure) caused by these compounds were expressed as percent changes from the preperfusion values of the compound (13) or nicorandil.

isolated heart of rats = assay: Effect on myocardiac injury induced by re-perfusion after ischemia (isolated rat heart); details: mean ± SD
Method: The cardiac muscle protecting effect of the compound of the present invention was tested by using the isolated heart of rats [test compound: N-cyano-N'-(2-nitroxyethyl)- 3-pyridinecarboximidamide (compound (13))]. The Langendorff's method was used in the same manner as in the aforementioned Referential Example 1)-6. The isolated heart was perfused with a perfusate for 30 minutes and then with a perfusate containing the test compound for 10 minutes, and perfusion was stopped so that the heart was in the so-called "ischemic state". Pacing was performed during the ischemia. […] Parameters of cardiac function after the onset of re-perfusion was monitored for 30 minutes, and the heart was quickly freezed. The amount of ATP in the heart muscle was extracted with perchloric acid and determined by HPLC. Nicorandil was used as a control.
The recovery rate of the cardiac function (heart rate×left ventricular pressure) after onset of reperfusion was calculated based on the cardiac function prior to the perfusion of the compound (13) and nicorandil as 100%. The amount of ATP in the heart muscle was also determined.

potassium channel [2] = details: in words; Trends in Pharmacological Sciences, 8, 283, 1987; cited from earlier work

| Compound | Increment of Efflux (potassium channel [1]) [%] | Coronary Perfusate Flow (isolated rat heart) [% change] | other results |
| --- | --- | --- | --- |
| N#CNC(=NCCO[N+](=O)[O-])c1cccnc1 [Compound (13), N-cyano-N'-(2-nitroxyethyl)-3-pyridinecarboximidamide] | 213.53 | 51.3 ± 3.2 | Recovery rate of cardiac function (isolated heart of rats; 1 × 10^-7 mole/min, n=3, ** p < 0.01 vs physiological saline group): 67.5 ± 6.0% |
| N#CNC(=NCCc1ccccc1)c1cccnc1 [(27), N-cyano-N'-(2-phenylethyl)-3-pyridinecarboximidamide] | 206.61 |  |  |
| O=C(NCCO[N+](=O)[O-])c1cccnc1 [Nicorandil] |  | 3.3 ± 5.6 | Cardiac Function (heart rate×left ventricular pressure) (isolated rat heart): 3.7 ± 6.7 percent change; Recovery rate of cardiac function (isolated heart of rats; 1 × 10^-6 mole/min, n=4): 12.7 ± 8.2% |
| N#CNC(=NCc1ccccc1)c1cccnc1 [(17), N-cyano-N'-benzyl-3-pyridinecarboximidamide] | 135.41 |  |  |
| N#CNC(=NCCO[N+](=O)[O-])c1ccncc1 [(41), N-cyano-N'-(2-nitroxyethyl)-4-pyridinecarboximidamide] | 126.88 |  |  |
| CC1(C)Oc2ccc(C#N)cc2[C@@H](N2CCCC2=O)[C@H]1O (relative stereo) [chromakalim] |  |  | potassium channel activating effect (potassium channel [2]): potassium channel activating effect |
